Experimental findings from patent publication US12527830B2, “Method for treating and preventing ulcerative colitis and method for DAI reduction” (BEIJING WEHAND-BIO PHARMACEUTICAL CO., LTD, priority 2022, dated 2026) are described below.

This assay relates to UC model mice. The assay can be described thus: 3% DSS-induced ulcerative colitis model in mice: colon length, body weight, Disease Activity Index (DAI). The assay is classed as in vivo. The conditions noted are these: positive drug group, 500 mg/kg/d by gavage, 3% DSS mice. How it is done: Mice aged 6-8 weeks were adaptively kept in an animal house for 3 days. After weighing, they were randomly divided into 8 groups (counted as Day 0), with 5-6 mice in each group. Experimental grouping was as follows: group 1, normal control; group 2, model; group 3, positive control; and groups 4-8, SZ-A with different administration doses, respectively. 3% DSS was formulated as follows: 3 g of DSS (Dextran Sulfate Sodium Salt) was dissolved in 100 mL of sterile water; The mulberry twig extract as prepared in Preparative Example 1 was formulated at different concentrations and dissolved in 1% CMC solution; Drug as positive control: Sulfasalazine Enteric-Coated Tablets (NMPN H31020557). On the day when grouping was done, the mice in group 8, SZ-A-5 (pretreatment) group, were administered with a mulberry twig extract by oral gavage (see the following table for dosages) once a day. All groups are normally available to food and water. […] After 5 days from the start of modelling, the access to 3% DSS was stopped, and all groups had normal drinking water instead, with the administration done normally. The mice were administered continuously and observed for 10 days, and euthanized by cervical dislocation. The colons of the mice were removed by dissection, and the lengths of the colons were measured and photographed. During the administration, the weights of the mice in each group were measured. During the modelling and administration, stool texture and blood in stool of the mice were monitored daily, and Disease Activity Index, DAI, for the mice was scored according to Table 2 below. [table] [table] • Note: DAI=Score for Weight Loss+Score for Stool Texture+Score for Fecal Occult Blood; Normal Stool: Shaped Stool; Mushy Stool: Pasty, Semi-Shaped Stool without Adhering to Anus; Liquid Stool: Thin, Watery Stool that may Adhere to Anus. Disease Activity Index (DAI) scores for mice were compared using the mulberry twig extracts in each preparative example with reference to the experimental steps in sections 1.1-1.3 above. […]

As for `O=C(O)c1cc(N=Nc2ccc(S(=O)(=O)Nc3ccccn3)cc2)ccc1O` [positive drug, 5-[p-(2-pyridylsulfamoyl)phenylazo]salicylic acid], the “inhibition of colonic atrophy (colon length) compared with model group” value (FIG. 1-2) is “significantly inhibited colonic atrophy”. Further, the “inhibition of weight loss compared with model group” value (FIG. 3) is “inhibit weight loss”. Further, for the setting “FIG. 4”, the “reduction of Disease Activity Index, DAI, compared with model group” value is reported as “reduce Disease Activity Index”.
